In patent US20260374739A1, “SMALL MOLECULAR WEIGHT CHEMICAL COMPOUND TO ANTAGONIZE EPH-EPHRIN TETRAMERIZATION AND INHIBIT BIDIRECTIONAL SIGNALING” (THE BOARD OF REGENTS OF THE UNIVERSITY OF TEXAS SYSTEM, priority 2022, published 2026):

What was measured:
[1] = target: T1, EphB1-EphrinB2 (EB2) (Rattus norvegicus, UniProt P09759); assay: Alpha assay EphB1-EphrinB2 (EB2) interaction; type: binding, mouse EB2
T1 construct: rat EphB1-Fc residues 18-538; mouse EB2-His residues 18-232; purchased R&D Systems (EphB1-Fc); Sino Biologicals (EB2-His)
T1 sequence (P09759 18-538): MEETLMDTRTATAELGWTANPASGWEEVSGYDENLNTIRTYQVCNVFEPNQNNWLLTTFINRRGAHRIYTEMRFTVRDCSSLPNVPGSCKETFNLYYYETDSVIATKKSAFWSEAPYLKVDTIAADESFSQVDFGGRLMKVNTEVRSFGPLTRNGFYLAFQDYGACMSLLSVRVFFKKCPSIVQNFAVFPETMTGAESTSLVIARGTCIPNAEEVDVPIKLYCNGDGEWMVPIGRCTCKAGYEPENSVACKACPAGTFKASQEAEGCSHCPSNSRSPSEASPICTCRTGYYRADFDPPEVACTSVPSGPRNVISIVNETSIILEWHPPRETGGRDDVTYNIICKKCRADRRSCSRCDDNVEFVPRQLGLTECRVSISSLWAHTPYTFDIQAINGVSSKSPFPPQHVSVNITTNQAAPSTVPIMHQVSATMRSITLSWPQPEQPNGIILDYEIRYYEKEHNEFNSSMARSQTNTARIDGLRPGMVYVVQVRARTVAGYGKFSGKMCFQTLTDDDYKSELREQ
Text: A chemiluminescent AlphaScreen™ bead-based proximity assay suitable for HTS was developed to measure the receptor-ligand interaction formed between EphB1 and EphrinB2 (EB2) ectodomains (FIG. 3). Here, when singlet oxygen molecules generated by high energy irradiation of donor beads travel over a constrained distance to excite acceptor beads, a chemiluminescent signal is generated and detected. If an analyte interferes with the EphB1-EB2 protein-protein interaction, close proximity of the donor and acceptor beads will be disrupted resulting in diminished or lost energy transfer and reduced acceptor bead emission.
Test was conducted in the Alpha assay, to see if purified soluble Reelin (previously shown to bind EphB1 ectodomain) can interfere with EphB1-EB2 binding.
The EphB1-EB2 screen was conducted using 0.8 nM of each protein, 50 ng beads per well, and assessed at 5 μM a library of −240,000 small, drug-like chemicals. […] They were also tested in a counter screen designed to identify non-specific compounds. Here, a single-protein Alpha assay was set up using a dual-tagged EphB2-His-Fc ectodomain protein that can bind both donor and acceptor beads to bring them into proximity. If a selected compound simply absorbs the chemiluminescent signal or interferes with bead function/binding or protein folding, it was hypothesized that it would also reduce signals in the single protein assay, and would consider it a false positive.

[2] = target: T2, EphrinB2-EphB2 (Homo sapiens, UniProt P29323); assay: Octet tetramerization inhibition, immobilized human EphrinB2 binding to 50 nM soluble human EphB2; conditions: for IC50: EphrinB2-EphB2
T2 construct: soluble human EphB1-His, EphB2-His, and EphB4-His ectodomains; commercially available human EphrinB1-Fc (EB1), EphrinB2-Fc (EB2), and EphrinB3-Fc (EB3) ectodomain proteins; purchased
T2 sequence (P29323 19-543 limits assumed): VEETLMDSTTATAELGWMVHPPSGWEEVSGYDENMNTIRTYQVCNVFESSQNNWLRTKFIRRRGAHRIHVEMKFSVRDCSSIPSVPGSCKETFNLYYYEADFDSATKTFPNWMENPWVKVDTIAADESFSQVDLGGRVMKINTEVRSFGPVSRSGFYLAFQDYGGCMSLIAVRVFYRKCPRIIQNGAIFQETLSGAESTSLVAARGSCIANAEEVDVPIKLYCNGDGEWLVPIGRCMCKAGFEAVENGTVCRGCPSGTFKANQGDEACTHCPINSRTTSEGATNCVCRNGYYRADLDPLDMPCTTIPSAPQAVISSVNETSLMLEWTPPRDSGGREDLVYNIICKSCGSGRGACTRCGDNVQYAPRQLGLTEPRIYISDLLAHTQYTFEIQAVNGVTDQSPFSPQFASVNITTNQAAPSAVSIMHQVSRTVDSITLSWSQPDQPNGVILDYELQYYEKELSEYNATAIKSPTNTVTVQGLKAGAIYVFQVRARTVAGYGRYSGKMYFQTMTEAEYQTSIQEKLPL

[3] = target: T3, EphrinB2-EphB1 (Homo sapiens, UniProt P54762); assay: Octet 80 sec association/500 sec dissociation, immobilized human EphrinB2-Fc binding to soluble human EphB1-His; conditions: immobilized human EphrinB2, 25 nM soluble human EphB1; for EphB1 Inhibition Percent, Inhibition of Association ONLY: at 3.2 μM and 80 seconds; for EphB1 Inhibition Percent, Inhibition of Association-Dissociation: at 3.2 μM and 580 seconds
T3 construct: soluble human EphB1-His, EphB2-His, and EphB4-His ectodomains; commercially available human EphrinB1-Fc (EB1), EphrinB2-Fc (EB2), and EphrinB3-Fc (EB3) ectodomain proteins; purchased
T3 sequence (P54762 18-540 limits assumed): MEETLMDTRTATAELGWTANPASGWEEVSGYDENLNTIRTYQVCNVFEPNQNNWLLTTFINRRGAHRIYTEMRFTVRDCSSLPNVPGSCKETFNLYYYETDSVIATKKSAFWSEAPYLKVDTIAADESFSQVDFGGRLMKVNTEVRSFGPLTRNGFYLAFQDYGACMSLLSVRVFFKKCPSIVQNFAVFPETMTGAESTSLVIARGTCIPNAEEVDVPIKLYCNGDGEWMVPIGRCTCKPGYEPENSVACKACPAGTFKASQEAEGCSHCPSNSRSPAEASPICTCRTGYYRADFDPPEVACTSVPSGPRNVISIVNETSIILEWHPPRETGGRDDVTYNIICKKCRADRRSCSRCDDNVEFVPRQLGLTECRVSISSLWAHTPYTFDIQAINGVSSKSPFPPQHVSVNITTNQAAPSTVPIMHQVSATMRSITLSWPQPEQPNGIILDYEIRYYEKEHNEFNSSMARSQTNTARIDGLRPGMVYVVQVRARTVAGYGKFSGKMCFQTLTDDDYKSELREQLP
Outline: (§1)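 EphrinB2-Fc captured on AHC biosensors, then soluble His-tagged EphB ectodomain (25 nM for % inhibition runs) associated 80 s and dissociated 500 s in PBS, 0.05% Tween-20, 1% DMSO ± compound. Compounds tested at 0.1–3.2 μM with a 10 μM max standard; IC50 from AUC of full traces or at 75 s and 135 s.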

[4] = target: T2, EphrinB2-EphB2; assay: Octet 80 sec association/500 sec dissociation, immobilized human EphrinB2-Fc binding to soluble human EphB2-His; conditions: immobilized human EphrinB2, 25 nM soluble human EphB2; for EphB2 Inhibition Percent, Inhibition of Association ONLY: at 3.2 μM and 80 seconds; for EphB2 Inhibition Percent, Inhibition of Association-Dissociation: at 3.2 μM and 580 seconds
Outline: as §1

[5] = target: T4, EphrinB2-EphB4 (Homo sapiens, UniProt P54760); assay: Octet 80 sec association/500 sec dissociation, immobilized human EphrinB2-Fc binding to soluble human EphB4-His; conditions: immobilized human EphrinB2, 25 nM soluble human EphB4; for EphB4 Inhibition Percent, Inhibition of Association ONLY: at 3.2 μM and 80 seconds; for EphB4 Inhibition Percent, Inhibition of Association-Dissociation: at 3.2 μM and 580 seconds
T4 construct: soluble human EphB1-His, EphB2-His, and EphB4-His ectodomains; commercially available human EphrinB1-Fc (EB1), EphrinB2-Fc (EB2), and EphrinB3-Fc (EB3) ectodomain proteins; purchased
T4 sequence (P54760 16-539 limits assumed): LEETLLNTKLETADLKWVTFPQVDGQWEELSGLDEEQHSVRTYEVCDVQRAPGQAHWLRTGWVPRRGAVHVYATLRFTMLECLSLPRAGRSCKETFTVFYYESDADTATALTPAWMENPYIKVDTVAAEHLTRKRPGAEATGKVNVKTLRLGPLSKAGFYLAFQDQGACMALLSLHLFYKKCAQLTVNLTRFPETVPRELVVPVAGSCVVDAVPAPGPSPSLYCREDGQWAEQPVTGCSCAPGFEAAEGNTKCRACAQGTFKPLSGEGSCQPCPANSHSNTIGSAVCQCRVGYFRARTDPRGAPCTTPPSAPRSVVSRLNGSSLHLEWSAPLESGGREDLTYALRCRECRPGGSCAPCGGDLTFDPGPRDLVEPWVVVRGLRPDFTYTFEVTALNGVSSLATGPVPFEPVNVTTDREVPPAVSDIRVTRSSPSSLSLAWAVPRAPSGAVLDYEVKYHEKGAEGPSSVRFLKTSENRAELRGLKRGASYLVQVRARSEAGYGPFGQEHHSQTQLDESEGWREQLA
Outline: as §1

[6] = Absolute Association IC50 (300 sec), Table A
[7] = Absolute Dissociation IC50 (450 sec), Table A
[8] = Relative AUC/IC50, Table A, compound 7: association only
[9] = Relative Association IC50 (300 sec), Table A
[10] = Relative Dissociation IC50 (450 sec), Table A

Row | Compound | antagonism of EphB1-EB2 [1] | tetramerization inhibitor activity [2] | IC50 ([2]; Absolute AUC/IC50, Table A) | IC50 [2, 6] | IC50 [2, 7] | IC50 [2, 8] | IC50 [2, 9] | IC50 [2, 10] | EphB1 Inhibition Percent, Inhibition of Association ONLY [3] | EphB1 Inhibition Percent, Inhibition of Association-Dissociation [3] | EphB2 Inhibition Percent, Inhibition of Association ONLY [4] | EphB2 Inhibition Percent, Inhibition of Association-Dissociation [4] | EphB4 Inhibition Percent, Inhibition of Association ONLY [5] | EphB4 Inhibition Percent, Inhibition of Association-Dissociation [5]
1 | Reelin: purified soluble Reelin (previously shown to bind EphB1 ectodomain) | almost complete inhibition at 200 nM | – | – | – | – | – | – | – | – | – | – | – | – | –
2 | Oc1c(I)cc(CN2CCN(Cc3ccc(Br)cc3)CC2)c2cccnc12 [Compound 46, 5-((4-(4-bromobenzyl)piperazin-1-yl)methyl)-7-iodoquinolin-8-ol] | – | exhibit strong IC50 values | 630 nM | 720 nM | 690 nM | 520 nM | 480 nM | 510 nM | 51.6% | 57.2% | 53.0% | 69.6% | 18.1% | 32.0%
3 | Oc1ccc(CN2CCN(c3ccc(I)cc3)CC2)c2cccnc12 [Compound 32] | – | – | > 1600 nM | > 1600 nM | > 1600 nM | 790 nM | 1400 nM | 1000 nM | 24.5% | 40.5% | 63.9% | 78.2% | 33.8% | 42.5%
4 | COc1ccc2[nH]cc(C(=O)N3CCN(c4ccc(Br)cc4)CC3)c2c1 [Compound 65, (4-(4-bromophenyl)piperazin-1-yl)(5-methoxy-1H-indol-3-yl)methanone] | – | – | > 1600 nM | > 1600 nM | > 1600 nM | > 1600 nM | > 1600 nM | > 1600 nM | 22.2% | 28.6% | 5.6% | 46.4% | 20.2% | 19.0%
